The values that follow come from patent publication US20200360331A1, “COMPOSITIONS COMPRISING 15-HEPE AND/OR 15-HETrE AND METHODS OF TREATING OR PREVENTING CARDIOMETABOLIC DISEASE, METABOLIC SYNDROME, AND/OR RELATED DISEASES” (Afimmune Limited, priority 2019, published 2020).

The target in one data set is T1, type II TGF-β receptor (Homo sapiens, UniProt P37173).
T1 construct: endogenous in cells; host or cells: HepG2
Put plainly: Degradation of type II TGF-β receptor in HepG2 cells. The format is cell-based. As to conditions: increasing doses for 1 hour, then 200 pM TGF-β for 48 hours. Here is the method: The effects of 15-HEPE on TGF-β-induced signaling and cellular responses were determined. To test the effect of 15-HEPE on TGF-β-induced signaling, the activities of 15-HEPE to regulate TGF-β-stimulated Smad2 phosphorylation and nuclear translocation, both of which are key signaling events leading to TGF-β-induced cellular responses, were tested. One important biological activity of TGF-β is transcriptional activation of genes responsible for epithelial-mesenchymal transition (EMT), which is a crucial event in wound healing, tissue fibrosis, and cancer progression. The effect of 15-HEPE on TGFβ-induced epithelial mesenchymal transition related proteins (such as fibronectin, PAI-1, and N-cadherin etc.) expression in HepG2 and […] cells were assessed. HepG2 cells (human hepatoma cell line) were treated in increasing doses of 15-HEPE stage II in DMEM containing 0.1% of FBS for 1 hour and continually stimulated with or without 200 picomolar (pM) of TGF-β for 48 hours.
HepG2 cells (human hepatoma cell line) were treated in increasing doses of 15-HEPE stage II in DMEM containing 0.1% of FBS for 1 hour and continually stimulated with or without 200 picomolar (pM) of TGF-β for 48 hours. The two panels shown in FIG. 18A are two separate experiments run under the same experimental conditions.

Data set [1] has as its system TβR-III (type III TGF-β receptor, betaglycan). In words: Sucrose density gradient analysis in Mv1Lu cells, TβR-III. The format is cell-based, mink. Particulars: 100 μM, 0, 1, 4 and 24 hours. Here is the method:
(§1) Sucrose gradient ultracentrifugation and confocal microscopy were used to identify 15-HEPE induced microdomain translocation of TGF-β receptors by sucrose. Sucrose density gradient analysis of TGF-β receptors was conducted in the plasma membranes of Mv1Lu cells (mink lung epithelial cell) treated with 100 μM of 15-HEPE and an equal volume of DMSO (dimethyl sulfoxide) at 37° C. for 0, 1, 4, and 24 hours, and the cell lysates from these treated cells were subjected to sucrose density gradient ultracentrifugation. The sucrose gradient fractions were then analyzed by Western blot analysis using anti-TβR-I (type I TGF-β receptor), anti-TβR-II (type II TGF-β receptor), anti-TβR-III (type III TGF-β receptor, betaglycan), anti-EGFR (epidermal growth factor receptor), and anti-caveolin-1 antibodies. The lipid raft/caveolae, and non-lipid raft microdomain localization of TβR-I, TβR-II, TβR-III, EGFR and caveolin-1 in the plasma membrane of untreated cells or cells treated with 15-HEPE were assessed to determine the effects of 15-HEPE on the membrane microdomain localization of the TGF-β receptors. […]

In data set [2] the test system is EGFR (epidermal growth factor receptor). Put plainly: Sucrose density gradient analysis in Mv1Lu cells, EGFR. The format is cell-based, mink. As to conditions: 100 μM, 0, 1, 4 and 24 hours. The protocol: as §1
Data set [3] has as its system NAFLD patients. In words: Phase IIa NAFLD study: lipidomics. The format is in vivo, human. Particulars: 2 g. The text has this: Exploratory analysis: The exploratory analysis included analysis of lipid and metabolic parameters including total cholesterol, triglycerides, very low-density lipoprotein cholesterol (VLDL-C), low density lipoprotein cholesterol (LDL-C), high density lipoprotein cholesterol (HDL-C), non-high-density lipoprotein cholesterol (non-HDL-C), remnant-like particle cholesterol (RLP-C), fasting glucose, insulin, free fatty acids and hemoglobin A1C (HbA1C). Additional exploratory analysis included high throughput lipidomics and proteomics. […] The study was planned to include 96 evaluable patients with 32 patients randomized per treatment group. […] Exploratory analysis: The exploratory analysis included analysis of lipid and metabolic parameters including total cholesterol, triglycerides, very low-density lipoprotein cholesterol (VLDL-C), low density lipoprotein cholesterol (LDL-C), high density lipoprotein cholesterol (HDL-C), non-high-density lipoprotein cholesterol (non-HDL-C), remnant-like particle cholesterol (RLP-C), fasting glucose, insulin, free fatty acids and hemoglobin A1C (HbA1C). Additional exploratory analysis included high throughput lipidomics and proteomics.

In data set [4] the test system is NAFLD patients. Put plainly: Phase IIa NAFLD study: safety (adverse events). The format is in vivo, human. The text has this:
The study was planned to include 96 evaluable patients with 32 patients randomized per treatment group.
The intensity of an AE is an estimate of the relative severity of the event made by the Investigator based on his or her clinical experience. The following definitions were used to rate the severity of an AE: • Mild: The adverse event was transient and easily tolerated. • Moderate: The adverse event caused the patient discomfort and interrupted the patient's usual activities. • Severe: The adverse event caused considerable interference with the patient's usual activities and may have been incapacitating or life-threatening.
Causality of the AE to experimental treatment was also established by taking into account the patient's history, most recent physical examination findings, and concomitant medications. The following definitions were used to determine causality of an AE: • Not related: temporal relationship of the onset of the AE, relative to the experimental treatment was not reasonable or another cause could explain the occurrence of the AE. • Related: temporal relationship of the onset of the AE, relative to the experimental treatment was reasonable, followed a known response pattern to the treatment, and an alternative cause was unlikely.

T1 sequence (P37173 23-567): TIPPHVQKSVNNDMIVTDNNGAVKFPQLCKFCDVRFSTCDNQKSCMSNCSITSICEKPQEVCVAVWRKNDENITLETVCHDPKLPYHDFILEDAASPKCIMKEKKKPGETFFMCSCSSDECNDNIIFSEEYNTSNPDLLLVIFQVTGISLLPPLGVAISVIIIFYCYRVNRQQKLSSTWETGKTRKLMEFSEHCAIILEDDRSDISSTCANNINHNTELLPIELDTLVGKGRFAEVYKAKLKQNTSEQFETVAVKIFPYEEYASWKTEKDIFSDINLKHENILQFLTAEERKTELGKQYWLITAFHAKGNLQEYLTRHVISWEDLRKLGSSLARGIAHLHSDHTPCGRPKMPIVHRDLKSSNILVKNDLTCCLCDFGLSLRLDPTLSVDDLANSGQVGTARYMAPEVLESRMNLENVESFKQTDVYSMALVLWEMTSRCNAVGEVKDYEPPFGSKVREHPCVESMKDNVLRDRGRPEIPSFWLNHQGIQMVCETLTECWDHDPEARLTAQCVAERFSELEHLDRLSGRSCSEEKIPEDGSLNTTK

On to `CC/C=C\CC(O)/C=C/C=C\C/C=C\C/C=C\CCCC(=O)O` (centres unmarked) [DS102, 15-hydroxy-eicosa-5Z,8Z,11Z,13E,17Z-pentaenoic acid], for which the “degradation of type II TGF-β receptor” value on type II TGF-β receptor is listed as “induced degradation of type II TGF-β receptor”. For the same compound, the “localization and abundance of TβR-III” value in data set [1] was “did not change the localization and abundance”. Also, the “localization and abundance of EGFR” value in data set [2] is “did not change the localization and abundance”. Besides, in the data set with NAFLD patients [3], the “levels of multiple glycerophospholipid groups” value is on record as “significantly increased” and the “levels of multiple hepatotoxic diglycerides” value is given as “significantly decreased”. Besides, in the data set on NAFLD patients [4] (1 g DS102 (n = 32)), the “Death, patients n” value is 0; the “Patients with ≥1 AE related to study drug, %” value is on record as “(6.3) %”; the “Patients with ≥1 AE, %” value is reported as “(59.4) %”. Moreover, in the data set on NAFLD patients [4] (2 g DS102 (n = 30)), the “Death, patients n” value is given as 0; the “Patients with ≥1 AE related to study drug, %” value is recorded as “(10.0) %”; the “Patients with ≥1 AE, %” value was “(50.0) %”; the “Patients with ≥1 SAE, %” value is reported as “(3.3) %”. In the data set on NAFLD patients [4] (NAFLD patients, 16 weeks), the “drug related serious adverse events (SAEs)” value is “no drug related serious adverse events”; the “safety and tolerability compared to placebo” value is “safe and well tolerated”.
